Measurements taken from ChEMBL document CHEMBL3045204, “Synthesis and structureantibacterial activity relationship studies of 4-substituted phenyl-4,5-dihydrobenzo[f][1,4]oxazepin-3(2H)-thiones” (2011).
In brackets after ≈: the same amount, converted by molar mass.

How the values were obtained:
Assay type in all cases: functional
Staphylococcus aureus = assay: Antibacterial activity Staphylococcus aureus […] after 16 to 20 hr by broth microdilution method
Escherichia coli = assay: Antibacterial activity Escherichia coli ATCC 25922 after 16 to 20 hr by broth microdilution method
Candida albicans = assay: Antifungal activity Candida albicans ATCC 90028 after 48 hr by broth microdilution method; conditions: ATCC 90028, 48 h
Pseudomonas aeruginosa = assay: Antibacterial activity Pseudomonas aeruginosa ATCC 27853 after 16 to 20 hr by broth microdilution method
Enterococcus faecalis = assay: Antibacterial activity Enterococcus faecalis ATCC 29212 after 16 to 20 hr by broth microdilution method

Row | Structure (SMILES) | MIC (Staphylococcus aureus) [µg/mL] | MIC (Escherichia coli) [µg/mL] | MIC (Candida albicans) [µg/mL] | MIC (Pseudomonas aeruginosa) [µg/mL] | MIC (Enterococcus faecalis) [µg/mL]
1 | S=C1COc2ccccc2CN1c1ccc(I)cc1 | 400 (≈ 1050 µM) | 100 (≈ 262 µM) | 800 (≈ 2100 µM) | 50 (≈ 131 µM) | 50 (≈ 131 µM)
2 | OC(Cn1cncn1)(Cn1cncn1)c1ccc(F)cc1F [FLUCONAZOLE] |  |  | 0.25 (≈ 0.816 µM) |  | 
3 | CC1(C)S[C@@H]2[C@H](NC(=O)[C@H](N)c3ccccc3)C(=O)N2[C@H]1C(=O)O [AMPICILLIN] | 0.78 (≈ 2.23 µM) | 6.25 (≈ 17.9 µM) |  |  | 0.78 (≈ 2.23 µM)
4 | Cc1cccc(N2Cc3ccccc3OCC2=S)c1 | 800 (≈ 2970 µM) | 400 (≈ 1480 µM) | 800 (≈ 2970 µM) | 100 (≈ 371 µM) | 50 (≈ 186 µM)
5 | COc1ccc(N2Cc3ccccc3OCC2=S)cc1 | 400 (≈ 1400 µM) | 200 (≈ 701 µM) | 800 (≈ 2800 µM) | 100 (≈ 350 µM) | 50 (≈ 175 µM)
6 | FC(F)(F)c1cccc(N2Cc3ccccc3OCC2=S)c1 | 400 (≈ 1240 µM) | 100 (≈ 309 µM) | 400 (≈ 1240 µM) | 50 (≈ 155 µM) | 25 (≈ 77.3 µM)
7 | S=C1COc2ccccc2CN1c1ccccc1 | 800 (≈ 3130 µM) | 200 (≈ 783 µM) | 800 (≈ 3130 µM) | 100 (≈ 392 µM) | 100 (≈ 392 µM)
8 | O=[N+]([O-])c1ccc(N2Cc3ccccc3OCC2=S)cc1 | > 1600 | 200 (≈ 666 µM) | 800 (≈ 2660 µM) | 50 (≈ 166 µM) | 50 (≈ 166 µM)
9 | Cc1ccc(N2Cc3ccccc3OCC2=S)cc1 | 200 (≈ 742 µM) | 200 (≈ 742 µM) | 200 (≈ 742 µM) | 25 (≈ 92.8 µM) | 25 (≈ 92.8 µM)
10 | CN(C)c1ccc(N2Cc3ccccc3OCC2=S)cc1 | 400 (≈ 1340 µM) | 200 (≈ 670 µM) | 800 (≈ 2680 µM) | 100 (≈ 335 µM) | 25 (≈ 83.8 µM)
11 | S=C1COc2ccccc2CN1c1cccc(Cl)c1 | 400 (≈ 1380 µM) | 200 (≈ 690 µM) | 800 (≈ 2760 µM) | 200 (≈ 690 µM) | 100 (≈ 345 µM)
12 | S=C1COc2ccccc2CN1c1ccc(Br)cc1 | 100 (≈ 299 µM) | 100 (≈ 299 µM) | 100 (≈ 299 µM) | 25 (≈ 74.8 µM) | 12.5 (≈ 37.4 µM)
13 | COc1cccc(N2Cc3ccccc3OCC2=S)c1 | 200 (≈ 701 µM) | 100 (≈ 350 µM) | 100 (≈ 350 µM) | 50 (≈ 175 µM) | 25 (≈ 87.6 µM)
14 | O=[N+]([O-])c1cccc(N2Cc3ccccc3OCC2=S)c1 | 200 (≈ 666 µM) | 100 (≈ 333 µM) | 200 (≈ 666 µM) | 25 (≈ 83.2 µM) | 25 (≈ 83.2 µM)
15 | O=C(O)c1cn(C2CC2)c2cc(N3CCNCC3)c(F)cc2c1=O [CIPROFLOXACIN] | 0.25 (≈ 0.754 µM) | 0.04 (≈ 0.121 µM) |  |  | 0.25 (≈ 0.754 µM)
16 | S=C1COc2ccccc2CN1c1ccc(Cl)cc1 | 400 (≈ 1380 µM) | 400 (≈ 1380 µM) | 800 (≈ 2760 µM) | 100 (≈ 345 µM) | 25 (≈ 86.3 µM)
17 | Fc1ccc(N2Cc3ccccc3OCC2=S)cc1 | 800 (≈ 2930 µM) | 100 (≈ 366 µM) | 400 (≈ 1460 µM) | 100 (≈ 366 µM) | 50 (≈ 183 µM)
